The values that follow come from US11963964B2, “Small molecules for mouse satellite cell proliferation” (President and Fellows of Harvard College, priority 2011, dated 2024).

In one experiment the test system is human satellite cells. Put plainly: Expansion of human satellite cells. The class given is cell-based.
Experiment [1] deals with satellite cells (SMPs). Put plainly: Satellite cell (SMP) proliferation with or without bFGF, 300 cells/well. Format: cell-based, mouse. Conditions: for additive or synergistic action with bFGF: compound plus bFGF versus bFGF alone (FIGS. 15-17, 28, 29).
Experiment [2] concerns satellite cells. Put plainly: Satellite cell proliferation screen and dose response, image-based cell count. Also on record: species or system mouse. Conditions: for activity on in vitro satellite cell proliferation (in words): screen hits tested in dose response / retest.
The test system of experiment [3] is satellite cells from aged and young tissue. As to the kind of experiment: Proliferation of satellite cells from aged and young mice. Format: cell-based, mouse. Conditions: aged cells as well as young cells (FIGS. 24, 25).
Another experiment deals with primary fibroblasts. Put plainly: Specificity test on Sca1-positive fibroblasts (Ki67). The class given is cell-based, mouse. Conditions: primary fibroblasts (FIG. 23).
The subject of another experiment is myoblasts. Put plainly: Myoblast differentiation in differentiation media (5% horse serum). Format: cell-based. The note with it: differentiation media comprising 5% horse serum (FIG. 39).
For experiment [4], the system named is satellite cells. Put plainly: Satellite cell proliferation in combination with TGF-beta inhibitor (Alk5 inhibitor II). The class given is cell-based, mouse.
Experiment [5] deals with satellite cells (SMPs). As to the kind of experiment: Differentiation of compound-treated SMPs into myotubes (myosin heavy chain staining). The class given is cell-based, mouse. Conditions: compound in proliferation conditions, then differentiation media.
Description: CAG-EGFP satellite cells were grown in the inventors' standard proliferation conditions and exposed to compounds for four days. Under the inventors' standard proliferation conditions cells were cultured on laminin-coated plates in Ham's F-10 medium supplemented with 10% heat inactivated horse serum, 100Units/mL penicillin/100 ug/mL streptomycin, and 2 mM L-glutamine. Compounds were added the day after plating. The compounds and media were either refreshed daily or after three days. To differentiate cells and form myotubes, after four days in proliferation conditions, media was switched to high-glucose DMEM supplemented with 10% heat inactivated horse serum, 10% fetal bovine serum, 0.5% chick embryo extract, 100Units/mL penicillin/100 ug/mL streptomycin, and 2 mM L-glutamine. Cultures were grown in differentiation media for 3-5 days until myotube formation was observed, then fixed. Cultures were then switched into differentiation media and cultured another four days. They were then fixed and stained with anti-myosin heavy chain (red channel) and Hoechst (blue channel).
For these experiments, 300 cells were plated in each well at Day 0 in our standard proliferation media (10% horse serum in F-10). […]
The inventors also assessed effects these compounds were having on the identity of the satellite cells and their ability to differentiate in culture. […]
Experiment [6] has as its system satellite cells from Tg:Pax7-nGFP mice. Put plainly: LINCS library screen for satellite cell proliferation (Hoechst 33342 high content imaging). Format: cell-based, mouse. Conditions: satellite cells cultured for 4 days, 96w plates. The source says: This example includes a list of primary hits from a screen designed to identify compounds that promote satellite cell proliferation in vitro. The satellite cell is a skeletal muscle stem cell responsible for post-natal muscle growth and regeneration. […] The four compound libraries tested, LINCS 1, 2, 3 and 4, were provided to us by the Sorger lab at Harvard Medical School. The Sorger lab is a member of the LINCS (Library of Integrated Network-Based Cellular Signatures) Consortium, which is an NIH initiative aiming to generate public data to further research of therapeutically relevant cellular pathways. LINCS 1, 2, and 4 contain kinase inhibitors, while LINCS 3 contains epigenetic modifiers.
FIG. 50 identifies small molecules that promote satellite cell proliferation screen in this Example. (A) Chemical screen experimental schematic outlining FACS isolation and compound library treatment of satellite cells. (B) Representative dose response curves from four of the top ten compounds. Top ten compounds were chosen based on highest fold change of cell proliferation relative to vehicle controls. Proliferation was assessed via high content imaging using Hoechst 33342 as a cell marker. (C) Representative fluorescent images of FACS sorted satellite cells from Tg:Pax7-nGFP mice on 96w plates cultured for 4 days and treated with vehicle, compound or positive control (Jak3 inhibitor 6). Optimal treatment concentration for each compound was determined in dose response; 3 uM for XMD8-92, 5 uM for SB23906, 800 nM for XMD11-50, and 400 nM for Vorinostat. Hoechst 33342 was used as a cell marker. Scale bars denote 100 um. (D) Fold change relative to vehicle control for several compounds that promote satellite cell expansion.
Satellite cells were isolated from intact limb muscle and prepared for fluorescence activated cell sorting (FACS) as described previously (Rocheteau et al., 2012). FACS was performed at Harvard University at the Bauer Flow Cytometry Core Facility on a Beckman Coulter MoFlo Legacy (Beckman Coulter). Satellite cells were sorted into Eppendorf tubes, and plated onto 96 well plates by hand (Greiner). Plates were pre-coated at 37° C. for 4 hours with […] laminin diluted in PBS. Sorted cells were cultured in StemSpan SFEM II basal medium (Stem Cell Technologies) supplemented with 0.05 ng/mL basic fibroblast growth factor (bFGF, Life Technologies). Wells for the positive control were treated with 600 nM Jak3 inhibitor IV (EMD Millipore). For screening and dose response follow up, cells were plated at 150 cells/well.
The day cells were plated was considered Day 0. Compounds were added on Day 1. For screening and dose response follow up, cells were incubated without media change until Day 4 and plates were prepared for imaging. […]

“Also recorded” adds a separate entry of the source.

On to `CC(C)(C)c1cc(NC(=O)Nc2ccc(-c3cn4c(n3)sc3cc(OCCN5CCOCC5)ccc34)cc2)no1` [AC220, quizartinib], for which the “expansion of human satellite cells (in words)” value with human satellite cells is “ability to expand human satellite cells at low doses”.
As for `CCCC1O[C@@H]2C[C@H]3[C@@H]4CCC5=CC(=O)C=C[C@]5(C)[C@H]4[C@@H](O)C[C@]3(C)[C@]2(C(=O)CO)O1` (stereo partly shown) [Budesonide], the “additive or synergistic action with bFGF” value in the experiment with satellite cells (SMPs) [1] is listed as “no additional increase”. Besides, in the experiment on satellite cells [2], the “activity on in vitro satellite cell proliferation (in words)” value was “identified and validated; also recorded: proliferation levels much greater than that seen in the negative control”.
In experiment [3], `C[C@]12O[C@H](C[C@]1(O)CO)n1c3ccccc3c3c4c(c5c6ccccc6n2c5c31)CNC4=O` [CEP701, Lestaurtinib] returned an optimum concentration of 50 nM. For the same compound, the “increase in proliferation, CEP701 and bFGF together” value with satellite cells (SMPs) [1] (0.05 μM CEP701 + 5 ng/mL bFGF daily, 300 cells/well, fixed four days after plating (FIG. 14)) came out at 8 fold. In addition, the “proliferation of the input SMP cells (level)” value with satellite cells [2] (retest, DMSO-treated cells 1±0.3 in both trials) is recorded as roughly 4.7±1.4. In addition, the “effect on fibroblast proliferation” value with primary fibroblasts is recorded as “no effect”.
For `OC[C@H]1O[C@@H](n2cnc3c(NC4CCCC4)ncnc32)[C@H](O)[C@@H]1O` [N6-cyclopentyladenosine], in the experiment on myoblasts, the myoblast differentiation entry is “drive myoblast differentiation”. Besides, the “additive effect with TGF-beta inhibitor (Alk5 inhibitor II)” value in the experiment on satellite cells [4] (compound plus Alk5 inhibitor II (FIGS. 21, 32)) is on record as “slight increase in proliferation”. In the experiment with satellite cells (SMPs) [1] (CPA 30 μM + bFGF (FIG. 28)), the “increase in the cell number, combination of CPA and bFGF” value is reported as “fifteen-fold”. Moreover, the “additive or synergistic action with bFGF” value with satellite cells (SMPs) [1] is “seen to synergize with bFGF”. Besides, the “activity on in vitro satellite cell proliferation (in words)” value in the experiment on satellite cells [2] is “identified and validated; also recorded: increase in vitro satellite cell proliferation”; in the experiment with satellite cells [2] (listed as CPA), “proliferation levels much greater than that seen in the negative control”. Besides, the “ability of treated cells to differentiate and fuse to form myotubes” value in the experiment with satellite cells (SMPs) [5] is listed as “able to form myotubes”.
Turning to `COc1nccc(-c2c(-c3ccc(F)cc3)ncn2C2CCC(O)CC2)n1` (stereo not shown) [SB23906], in [6], the “optimal treatment concentration determined in dose response” value was 5 µM.
Regarding `N#C/C(=C\c1ccc(O)c(O)c1)C(=O)NCc1ccccc1` [Tyr AG490], the myoblast differentiation entry in the experiment with myoblasts is “drive myoblast differentiation”.
Turning to `O=C(CCCCCCC(=O)Nc1ccccc1)NO` [Vorinostat, suberoylanilide hydroxamic acid], the “optimal treatment concentration determined in dose response” value in experiment [6] amounted to 0.4 µM.
Same read-out and setting: as for `CCOc1cc(N2CCC(O)CC2)ccc1Nc1ncc2c(n1)N(C)c1ccccc1C(=O)N2C` [XMD8-92], the figure is 3 µM; as for `COc1cc(C(=O)N2CCC(N3CCN(C)CC3)CC2)ccc1Nc1ncc2c(n1)N(C)c1ccccc1C(=O)N2C` [XMD11-50], 0.8 µM.
For the compound Alk5 inhibitor II, the “proliferation on addition of Alk5 inhibitor II to the cultures” value in the experiment on satellite cells [4] (Alk5 inhibitor II alone) is recorded as “slight increase in proliferation”.
For “bFGF: basic fibroblast growth factor, positive control”, the “increase in the cell number, bFGF alone” value with satellite cells (SMPs) [1] (FIG. 28) is recorded as “six-fold”. In the experiment with satellite cells [2] (50 cells/well plated, Day 4, DMSO-treated wells around 50 cells), the “number of cells per well at the end of the assay” value was 150-250 cells. Also, the “level of proliferation, fold change over the DMSO vehicle control” value in the experiment with satellite cells [2] (FIG. 3A, positive control, DMSO 1±0.3) was found to be 3.4±0.9 fold change. In addition, the “level of proliferation, fold change over the DMSO vehicle control (normalized value)” value in the experiment on satellite cells [2] (FIG. 3B, re-supplied compounds dose response, 50 cells/well, positive control, DMSO 1±0.4) is recorded as 5.6±1.7 fold change. The “ability of treated cells to differentiate and fuse to form myotubes” value in the experiment with satellite cells (SMPs) [5] is recorded as “able to form large myotubes”.
